SMILES strings stand for the structures.

The assay addresses T1, human PF4 (Homo sapiens, UniProt P02776).
T1 construct: PF4 is a 70 amino acid, lysine-rich 7.8 kDa platelet-specific protein; made in house; host or cells: Escherichia coli BL21DE3 pLysS (pT7-7) and/or Drosophila S2 cells
T1 sequence (P02776 32-101): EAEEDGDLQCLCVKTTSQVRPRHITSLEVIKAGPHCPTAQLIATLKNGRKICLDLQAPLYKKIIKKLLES
Nature of the assay: Inhibition of PF4 tetramer formation (BS3 cross-linking, SDS-PAGE). Particulars: for IC50: read-out: IC50 of PF4 tetramer formation inhibition; for inhibition at 1 µM: 1 μM inhibitor; for inhibition at 1 µM / inhibition at 3 µM / inhibition at 5 µM / inhibition at 10 µM: read-out: % inhibition of PF4 tetramer formation at single concentration of inhibitor; for inhibition at 3 µM: 3 μM inhibitor (column A); for inhibition at 5 µM: 5 μM inhibitor; for inhibition at 10 µM: 10 μM inhibitor (column A). Format: biochemical. A digest of the protocol:
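Monomer, dimer, trimer and tetramer fractions were quantified by densitometry after reducing 12% SDS-PAGE of BS3-cross-linked (0.2 mM, 30 min, room temperature) PF4. Before cross-linking, 10 μg/ml E. coli-expressed human WT PF4 in PBS was exposed to compound for 15 min at 37° C or 60 min at room temperature; controls lacked compound.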

A word on the IC50: it is the point on the concentration scale where inhibition reaches its midpoint. As to `CC(C)(C)OC(=O)NCC(=O)C1C(=O)c2ccc(C(c3ccc4c(c3)C(=O)C(C(=O)CNC(=O)OC(C)(C)C)C4=O)(C(F)(F)F)C(F)(F)F)cc2C1=O` (stereo not shown) [Example 228, tert-butyl N-[2-(5-{2-[2-(2-{[(tert-butoxy)carbonyl]amino}acetyl)-1,3-dioxo-2,3-dihydro-1H-inden-5-yl]-1,1,1,3,3,3-hexafluoropropan-2-yl}-1,3-dioxo-2,3-dihydro-1H-inden-2-yl)-2-oxoethyl]carbamate], the IC50 was 2800 nM.

`CC(C)(C)OC(=O)N1CCOC(C(=O)C2C(=O)c3ccc(C(=O)c4ccc5c(c4)C(=O)C(C(=O)C4CN(C(=O)OC(C)(C)C)CCO4)C5=O)cc3C2=O)C1` (stereo not shown) [Example 240, tert-butyl 2-[5-(2-{4-[(tert-butoxy)carbonyl]morpholine-2-carbonyl}-1,3-dioxo-2,3-dihydro-1H-indene-5-carbonyl)-1,3-dioxo-2,3-dihydro-1H-indene-2-carbonyl]morpholine-4-carboxylate]: the inhibition at 1 µM is 14% and the inhibition at 3 µM turned out to be 32%.

As for `CC(C)C[C@@H](N)C(=O)C1C(=O)c2ccc(C(=O)c3ccc4c(c3)C(=O)C(C(=O)[C@H](N)CC(C)C)C4=O)cc2C1=O` (stereo partly drawn) [Example 354, 2-[(2R)-2-amino-4-methylpentanoyl]-5-{2-[(2R)-2-amino-4-methylpentanoyl]-1,3-dioxo-2,3-dihydro-1H-indene-5-carbonyl}-2,3-dihydro-1H-indene-1,3-dione], the inhibition at 1 µM was 26% and the inhibition at 3 µM was 32%.

For `O=C(NC1CCCC1)C1C(=O)c2ccc(C(c3ccc4c(c3)C(=O)C(C(=O)NC3CCCC3)C4=O)(C(F)(F)F)C(F)(F)F)cc2C1=O` (stereo not shown) [Example 109, N-cyclopentyl-5-{2-[2-(cyclopentylcarbamoyl)-1,3-dioxo-2,3-dihydro-1H-inden-5-yl]-1,1,1,3,3,3-hexafluoropropan-2-yl}-1,3-dioxo-2,3-dihydro-1H-indene-2-carboxamide], the inhibition at 5 µM was determined as 68% and the inhibition at 10 µM amounted to 59%.

Regarding `CCC(=O)C1C(=O)c2ccc(S(=O)(=O)c3ccc4c(c3)C(=O)C(C(=O)CC)C4=O)cc2C1=O` (stereo not shown) [Example 325, 5-[(1,3-dioxo-2-propanoyl-2,3-dihydro-1H-inden-5-yl)sulfonyl]-2-propanoyl-2,3-dihydro-1H-indene-1,3-dione], the inhibition at 10 µM was 34%.

`CC(C)(C)OC(=O)N1CCOC(C(=O)C2C(=O)c3ccc(S(=O)(=O)c4ccc5c(c4)C(=O)C(C(=O)C4CN(C(=O)OC(C)(C)C)CCO4)C5=O)cc3C2=O)C1` (stereo not shown) [Example 233]: the inhibition at 1 µM was 1% and the inhibition at 3 µM was determined as 3%.

Take `CC(C)(C)OC(=O)NCC(=O)C1C(=O)c2ccc(Oc3ccc4c(c3)C(=O)C(C(=O)CNC(=O)OC(C)(C)C)C4=O)cc2C1=O` (stereo not shown) [Example 272, tert-butyl N-[2-(5-{[2-(2-{[(tert-butoxy)carbonyl]amino}acetyl)-1,3-dioxo-2,3-dihydro-1H-inden-5-yl]oxy}-1,3-dioxo-2,3-dihydro-1H-inden-2-yl)-2-oxoethyl]carbamate]: the inhibition at 1 µM was 26% and the inhibition at 3 µM turned out to be 56%.

In the case of `O=C(c1ccc2c(c1)C(=O)C(C(=O)CN1CCCC1=O)C2=O)c1ccc2c(c1)C(=O)C(C(=O)CN1CCCC1=O)C2=O` (stereo not shown) [Example 183, 5-{1,3-dioxo-2-[2-(2-oxopyrrolidin-1-yl)acetyl]-2,3-dihydro-1H-indene-5-carbonyl}-2-[2-(2-oxopyrrolidin-1-yl)acetyl]-2,3-dihydro-1H-indene-1,3-dione], the inhibition at 5 µM was determined as 87%, the inhibition at 10 µM amounted to 100% and the concentration for half-maximal inhibition (IC50) came out at 4300 nM.

With `O=C1c2ccc(S(=O)(=O)c3ccc4c(c3)C(=O)C(C(=O)C3CC3)C4=O)cc2C(=O)C1C(=O)C1CC1` (stereo not shown) [Example 402, 2-cyclopropanecarbonyl-5-[(2-cyclopropanecarbonyl-1,3-dioxo-2,3-dihydro-1H-inden-5-yl)sulfonyl]-2,3-dihydro-1H-indene-1,3-dione], the inhibition at 1 µM is 24% and the inhibition at 3 µM was determined as 28%.

For the molecule `CCCC(=O)C1C(=O)c2ccc(S(=O)(=O)c3ccc4c(c3)C(=O)C(C(=O)CCC)C4=O)cc2C1=O` (stereo not shown) [Example 322, 2-butanoyl-5-[(2-butanoyl-1,3-dioxo-2,3-dihydro-1H-inden-5-yl)sulfonyl]-2,3-dihydro-1H-indene-1,3-dione], the inhibition at 10 µM came to 40%.

Regarding `CC(C)CCCC(=O)C1C(=O)c2ccc(C(=O)c3ccc4c(c3)C(=O)C(C(=O)CCCC(C)C)C4=O)cc2C1=O` (stereo not shown) [Example 189, 2-(5-methylhexanoyl)-5-[2-(5-methylhexanoyl)-1,3-dioxo-2,3-dihydro-1H-indene-5-carbonyl]-2,3-dihydro-1H-indene-1,3-dione], the inhibition at 5 µM came out at 62% and the inhibition at 10 µM came to 71%.

Consider `CCOC(=O)CNC(=O)C1C(=O)c2ccc(C(=O)c3ccc4c(c3)C(=O)C(C(=O)NCC(=O)OCC)C4=O)cc2C1=O` (stereo not shown) [Example 30, 5,5′-5,5′-carbonylbis([(1,3-dioxo-indane-2-carbonyl)-amino]-acetic acid ethyl ester)], for which the inhibition at 5 µM stood at 12% and the inhibition at 10 µM came out at 58%.

In the case of `C[C@@H]1CC[C@@H](C(=O)C2C(=O)c3ccc(C(=O)c4ccc5c(c4)C(=O)C(C(=O)[C@@H]4CC[C@@H](C)N4C(=O)OC(C)(C)C)C5=O)cc3C2=O)N1C(=O)OC(C)(C)C` (stereo partly drawn) [Example 120B, tert-butyl (2S,5R)-2-(5-{2-[(2S,5R)-1-[(tert-butoxy)carbonyl]-5-methylpyrrolidine-2-carbonyl]-1,3-dioxo-2,3-dihydro-1H-indene-5-carbonyl}-1,3-dioxo-2,3-dihydro-1H-indene-2-carbonyl)-5-methylpyrrolidine-1-carboxylate], the inhibition at 5 µM turned out to be 75% and the inhibition at 10 µM came out at 86%.

As for `N#CC1C(=O)c2ccc(C(=O)c3ccc4c(c3)C(=O)C(C#N)C4=O)cc2C1=O` (stereo not shown) [Example 250, 5-(2-cyano-1,3-dioxo-2,3-dihydro-1H-indene-5-carbonyl)-1,3-dioxo-2,3-dihydro-1H-indene-2-carbonitrile], the inhibition at 1 µM was 26%, the inhibition at 3 µM is 42% and the half-maximal inhibitory concentration (IC50) is 3000 nM.

For `O=C1c2ccc(S(=O)(=O)c3ccc4c(c3)C(=O)C(C(=O)[C@@H]3C[C@H]3C(=O)O)C4=O)cc2C(=O)C1C(=O)[C@@H]1C[C@H]1C(=O)O` (stereo in doubt) [Example 223, (1R,2R)-2-[5-({2-[(1R,2R)-2-carboxycyclopropanecarbonyl]-1,3-dioxo-2,3-dihydro-1H-inden-5-yl}sulfonyl)-1,3-dioxo-2,3-dihydro-1H-indene-2-carbonyl]cyclopropane-1-carboxylic acid], the inhibition at 5 µM was found to be 97%, the inhibition at 10 µM worked out at 100% and the IC50 is 1400 nM.

`C[C@H](NC(=O)C1C(=O)c2ccc(C(=O)c3ccc4c(c3)C(=O)C(C(=O)N[C@@H](C)C(=O)O)C4=O)cc2C1=O)C(=O)O` (stereo partly drawn) [Example 316, (2S)-2-{[5-(2-{[(1S)-1-carboxyethyl]carbamoyl}-1,3-dioxo-2,3-dihydro-1H-indene-5-carbonyl)-1,3-dioxo-2,3-dihydro-1H-inden-2-yl]formamido}propanoic acid]: the inhibition at 1 µM is 25% and the inhibition at 3 µM was determined as 50%.

With `CCC(=O)C1C(=O)c2ccc(C(=O)c3ccc4c(c3)C(=O)C(C(=O)CC)C4=O)cc2C1=O` (stereo not shown) [Example 324, 5-(1,3-dioxo-2-propanoyl-2,3-dihydro-1H-indene-5-carbonyl)-2-propanoyl-2,3-dihydro-1H-indene-1,3-dione], the inhibition at 10 µM amounted to 35%.

As to `COC(=O)CCC(=O)C1C(=O)c2ccc(C(=O)c3ccc4c(c3)C(=O)C(C(=O)CCC(=O)OC)C4=O)cc2C1=O` (stereo not shown) [Example 230, methyl 4-{5-[2-(4-methoxy-4-oxobutanoyl)-1,3-dioxo-2,3-dihydro-1H-indene-5-carbonyl]-1,3-dioxo-2,3-dihydro-1H-inden-2-yl}-4-oxobutanoate], the inhibition at 1 µM was found to be 1% and the inhibition at 3 µM amounted to 24%.

Consider `COCCOCCNC(=O)C1C(=O)c2ccc(C#Cc3ccc4c(c3)C(=O)C(C(=O)NCCOCCOC)C4=O)cc2C1=O` (stereo not shown) [Example 381, N-[2-(2-methoxyethoxy)ethyl]-5-[2-(2-{[2-(2-methoxyethoxy)ethyl]carbamoyl}-1,3-dioxo-2,3-dihydro-1H-inden-5-yl)ethynyl]-1,3-dioxo-2,3-dihydro-1H-indene-2-carboxamide], for which the inhibition at 1 µM stood at 7% and the inhibition at 3 µM was 19%.

Turning to `O=C(NCCc1ccc(F)cc1)C1C(=O)c2ccc(S(=O)(=O)c3ccc4c(c3)C(=O)C(C(=O)NCCc3ccc(F)cc3)C4=O)cc2C1=O` (stereo not shown) [Example 83, N-[2-(4-fluorophenyl)ethyl]-5-[(2-{[2-(4-fluorophenyl)ethyl]carbamoyl}-1,3-dioxo-2,3-dihydro-1H-inden-5-yl)sulfonyl]-1,3-dioxo-2,3-dihydro-1H-indene-2-carboxamide], the IC50 is 2300 nM.

As to `COCCOCCNCC(=O)C1C(=O)c2ccc(Oc3ccc4c(c3)C(=O)C(C(=O)CNCCOCCOC)C4=O)cc2C1=O` (stereo not shown) [Example 394, 2-(2-{[2-(2-methoxyethoxy)ethyl]amino}acetyl)-5-{[2-(2-{[2-(2-methoxyethoxy)ethyl]amino}acetyl)-1,3-dioxo-2,3-dihydro-1H-inden-5-yl]oxy}-2,3-dihydro-1H-indene-1,3-dione], the inhibition at 1 µM came out at 2% and the inhibition at 3 µM is 5%.
